Source: patent US20190053492A1, “SUBSTITUTED PYRIDINE COMPOUNDS AS PESTICIDES” (Bayer CropScience Aktiengesellschaft, priority 2016, published 2019)
Where two headings read alike, the source gives them in different places.

Key:
[1] = log P by HPLC on reversed-phase column (C 18), EEC Directive 79/831 Annex V.A8; assay type: physicochemical; settings: 55° C.; for LOGP_HCOOH: log P (HCOOH); for chromatographic logP: reversed-phase HPLC column (C 18)
Protocol: Temperature: 55° C. […] Called log P (HCOOH) in the table. […] Called log P (neutral) in the table.

Spodoptera frugiperda = Spodoptera frugiperda spray test; assay type: in vivo; settings: after 7 days, maize leaf discs; for pest or weed control at 500 g/ha / pest or weed control at 100 g/ha: Spodoptera frugiperda, foliar, 168 h, read-out: efficacy (caterpillars killed)
Protocol: Spodoptera frugiperda—Spray Test
Solvent: 78.0 parts by weight of acetone • • 1.5 parts by weight of dimethylformamide
Emulsifier: alkylaryl polyglycol ether
To produce a suitable active ingredient formulation, 1 part by weight of active ingredient is dissolved with the specified parts by weight of solvent and made up with water containing an emulsifier concentration of 1000 ppm until the desired concentration is attained. To produce further test concentrations, the formulation is diluted with emulsifier-containing water.
Leaf discs of maize (Zea mays) are sprayed with an active ingredient formulation of the desired concentration and, after drying, populated with caterpillars of the armyworm (Spodoptera frugiperda).
After 7 days, the efficacy in % is determined. 100% means that all the caterpillars have been killed; 0% means that no caterpillar has been killed.

[2] = acidic range pH 2.7, 0.1% aqueous formic acid and acetonitrile, reversed-phase column (C 18)
[3] = log P, neutral range, HPLC on reversed-phase column (C 18)
[4] = acidic range at pH 2.7, 0.1% aqueous formic acid and acetonitrile, HPLC on reversed-phase column (C 18)
[5] = pH 2.7, LC-MS acidic range, pH 2.7, 0.1% formic acid/acetonitrile, read-out: log P (acidic) / log P (HCOOH)
[6] = pH 7.8, LC-MS neutral range, pH 7.8, ammonium hydrogencarbonate/acetonitrile, read-out: log P (neutral)

Row | Compound | LOGP_NEUTRAL [1, 3] | efficacy (caterpillars killed) (Spodoptera frugiperda; application rate 500 g/ha) [%] | efficacy (caterpillars killed) (Spodoptera frugiperda; application rate 100 g/ha) [%] | LOGP_HCOOH [1, 4] | also measured
1 | O=C(NCC1CCC1)c1cc(-c2ccc(C(F)(F)F)cc2)cc(NC(=O)C2CC2)n1 [Example I-049] | 4.10 | 83 | – | – | LOGP_HCOOH [1, 2]: 4.21
2 | O=C(NCc1ccc(C(F)(F)F)cc1F)c1cc(-c2ccc(C(F)(F)F)cc2)cc(NC(=O)C2CC2)n1 [Example I-054] | 4.59 | 100 | – | – | LOGP_HCOOH [1, 2]: 4.68
3 | O=C(NCCCc1ccc(C(F)(F)F)cc1)c1cc(-c2ccc(C(F)(F)F)cc2)cc(NC(=O)C2CC2)n1 [Example I-058] | 4.79 | 100 | – | – | LOGP_HCOOH [1, 2]: 4.94
4 | O=C(NCc1cc(F)c(Cl)cc1Cl)c1cc(-c2ccc(C(F)(F)F)cc2)cc(NC(=O)C2CC2)n1 [Example I-059] | 4.93 | 100 | – | – | LOGP_HCOOH [1, 2]: 5.09
5 | O=C(NCc1ccc(Cl)c(F)c1)c1cc(-c2ccc(OC(F)(F)F)cc2)cc(NC(=O)C2CC2)n1 [Example I-062] | 4.53 | 100 | 83 | – | LOGP_HCOOH [1, 2]: 4.67
6 | O=C(NCc1cc(F)c(Cl)cc1Cl)c1cc(-c2ccc(OC(F)(F)F)cc2)cc(NC(=O)C2CC2)n1 [Example I-063] | 5.07 | 100 | – | – | LOGP_HCOOH [1, 2]: 5.20
7 | COc1ccc(CNC(=O)c2cc(-c3ccc(OC(F)(F)F)cc3)cc(NC(=O)C3CC3)n2)cc1 [Example I-083] | 4.05 | 100 | 83 | – | LOGP_HCOOH [1, 2]: 4.22
8 | Cn1ncc2cccc(CNC(=O)c3cc(-c4ccc(OC(F)(F)F)cc4)cc(NC(=O)C4CC4)n3)c21 [Example I-092] | 3.67 | 100 | – | – | LOGP_HCOOH [1, 2]: 3.81
9 | N#Cc1ccc(CNC(=O)c2cc(-c3ccc(OC(F)(F)F)c(F)c3)cc(NC(=O)C3CC3)n2)cc1 [Example I-121] | 3.83 | 100 | 83 | 3.94 | –
10 | N#Cc1ccc(CNC(=O)c2cc(-c3ccc(OC(F)(F)F)cc3Cl)cc(NC(=O)C3CC3)n2)cc1 [Example I-122] | 3.99 | 100 | 100 | 4.18 | –
11 | N#CC1(NC(=O)c2cc(-c3ccc(OC(F)(F)F)cc3)cc(NC(=O)C3CC3)n2)CCOCC1 [Example I-134] | – | 100 | 83 | 3.58 | –
12 | COC(=O)C(C)NC(=O)c1cc(-c2ccc(OC(F)(F)F)cc2)cc(NC(=O)C2CC2)n1 (stereo not shown) [Example I-136] | – | 100 | – | 3.68 | –
13 | CCC(C#N)(CC)NC(=O)c1cc(-c2ccc(OC(F)(F)F)cc2)cc(NC(=O)C2CC2)n1 [Example I-139] | – | 100 | – | 4.28 | –
14 | N#Cc1ccc(CNC(=O)c2cc(-c3ccc(C(F)(F)F)nc3F)cc(NC(=O)C3CC3)n2)cc1 [Example I-143] | – | – | 100 | 3.24 | –
15 | CCc1cc(C(F)(F)C(F)(F)F)cc(C)c1-c1cc(NC(=O)C2CC2)nc(C(=O)NCc2ccc(C#N)cc2)c1 [Example I-148, N-(4-Cyanobenzyl)-6-[(cyclopropylcarbonyl)amino]-4-[2-ethyl-6-methyl-4-(pentafluoroethyl)phenyl]pyridine-2-carboxamide] | 4.72 | – | – | 4.85 | chromatographic logP [1, 5]: 4.85; chromatographic logP [1, 6]: 4.72; pest or weed control at 500 g/ha (Spodoptera frugiperda; application rate 500 g/ha): 100%
16 | O=C(NCC1CCC(C(F)(F)F)CC1)c1cc(-c2ccc(OC(F)(F)F)cc2)cc(NC(=O)C2CC2)n1 (stereo not shown) [Example I-156] | 4.85 | 100 | 100 | 4.97 | –
17 | CC1(NC(=O)c2cc(-c3ccc(OC(F)(F)F)cc3)cc(NC(=O)C3CC3)n2)CSC1 [Example I-163] | 4.24 | 100 | – | 4.32 | –
18 | N#Cc1ccc2c(c1)CCC2NC(=O)c1cc(-c2ccc(OC(F)(F)F)cc2)cc(NC(=O)C2CC2)n1 (stereo not shown) [Example I-164] | 4.24 | 100 | 100 | 4.42 | –

Row | Compound | LOGP_NEUTRAL [1, 3] | efficacy (caterpillars killed) (Spodoptera frugiperda; application rate 500 g/ha) [%] | efficacy (caterpillars killed) (Spodoptera frugiperda; application rate 100 g/ha) [%] | LOGP_HCOOH [1, 4] | also measured
19 | N#Cc1ccc2[nH]nc(NC(=O)c3cc(-c4ccc(OC(F)(F)F)cc4)cc(NC(=O)C4CC4)n3)c2c1 [Example I-166] | – | 83 | – | 3.68 | –
20 | O=C(NC1CCCC1)c1cc(-c2ccc(OC(F)(F)F)cc2)cc(NC(=O)C2CC2)n1 [Example I-169] | 4.22 | 100 | 100 | 4.35 | –
21 | O=C(NCC1CCCC1)c1cc(-c2ccc(OC(F)(F)F)cc2)cc(NC(=O)C2CC2)n1 [Example I-170] | 4.55 | 100 | 83 | 4.68 | –
22 | N#Cc1ccc(CNC(=S)c2cc(-c3ccc(OC(F)(F)F)cc3)cc(NC(=S)C3CC3)n2)cc1 [Example I-181, N-(4-Cyanobenzyl)-6-[(cyclopropylcarbonothioyl)amino]-4-[4-(trifluoromethoxy)phenyl]pyridine-2-carbothioamide] | 5.43 | – | – | 5.54 | chromatographic logP [1, 5]: 5.54; chromatographic logP [1, 6]: 5.43; pest or weed control at 100 g/ha (Spodoptera frugiperda; application rate 100 g/ha): 100%; pest or weed control at 500 g/ha (Spodoptera frugiperda; application rate 500 g/ha): 100%
23 | O=C(NC1CCS(=O)(=O)C1)c1cc(-c2ccc(OC(F)(F)F)cc2)cc(NC(=O)C2CC2)n1 (stereo not shown) [Example I-187] | 3.00 | 83 | – | 3.09 | –
24 | N#Cc1ccc(CNC(=O)c2cc(-c3ccc(C4(C(F)(F)F)CC4)cc3)cc(NC(=O)C3CC3)n2)cc1 [Example I-193] | 3.95 | 100 | – | 4.12 | –
25 | N#CC1CCC(CNC(=O)c2cc(-c3ccc(OC(F)(F)F)cc3)cc(NC(=O)C3CC3)n2)CC1 (stereo not shown) [Example I-198] | 3.75 | 100 | 100 | 3.85 | –
26 | N#CCCCCCNC(=O)c1cc(-c2ccc(OC(F)(F)F)cc2)cc(NC(=O)C2CC2)n1 [Example I-200] | 3.51 | 100 | 100 | 3.59 | –
27 | N#Cc1ccc(CNC(=O)c2cc(-c3ccc(OC(F)(F)F)cc3)cc(NC(=O)C3CCCC3)n2)cc1 [Example I-207] | 4.51 | 100 | – | – | –
28 | N#Cc1ccc(CNC(=O)c2cc(-c3ccc(OC(F)(F)F)cc3)cc(NC(=O)Cc3ccc([N+](=O)[O-])cc3)n2)cc1 [Example I-211] | 4.01 | 100 | 83 | 4.16 | –
29 | N#Cc1ccc(CNC(=O)c2cc(-c3ccc(OC(F)(F)F)cc3)cc(NC(=O)c3cnco3)n2)cc1 [Example I-212] | 3.34 | 100 | – | 3.44 | –
30 | CC(=O)N(C)c1cc(-c2ccc(OC(F)(F)F)cc2)cc(C(=O)NCc2ccc(C#N)cc2)n1 [Example I-220] | 3.35 | 100 | – | 3.39 | –
31 | CCN(C(=O)C(C)C)c1cc(-c2ccc(OC(F)(F)F)cc2)cc(C(=O)NCc2ccc(C#N)cc2)n1 [Example I-221] | 4.20 | – | 80 | 4.20 | –
32 | COC(C)C(=O)Nc1cc(-c2ccc(OC(F)(F)F)cc2)cc(C(=O)NCc2ccc(C#N)cc2)n1 (stereo not shown) [Example I-223] | 3.91 | 100 | – | 4.01 | –
33 | O=C(NC1(c2ccc([N+](=O)[O-])cc2)CC1)c1cc(-c2ccc(OC(F)(F)F)cc2)cc(NC(=O)C2CC2)n1 [Example I-229] | – | 100 | – | 4.23 | –
34 | COC(=O)N(Cc1ccc(C#N)cc1)C(=O)c1cc(-c2ccc(OC(F)(F)F)cc2)cc(NC(=O)C2CC2)n1 [Example I-231, Methyl (4-cyanobenzyl)({6-[(cyclopropylcarbonyl)amino]-4-[4-(trifluoromethoxy)phenyl]pyridin-2-yl}carbonyl)carbamate] | 4.43 | – | – | 4.41 | chromatographic logP [1, 5]: 4.41; chromatographic logP [1, 6]: 4.43; pest or weed control at 100 g/ha (Spodoptera frugiperda; application rate 100 g/ha): 100%; pest or weed control at 500 g/ha (Spodoptera frugiperda; application rate 500 g/ha): 100%
35 | N#Cc1ccc(CNC(=O)c2cc(-c3ccc(OC(F)(F)F)cc3)cc(NC(=O)C3(C(F)(F)F)CC3)n2)cc1 [Example I-242] | – | 100 | – | – | LOGP_HCOOH [1, 2]: 4.57; LOGP_NEUTRAL ([1]; log P (neutral), HPLC reversed-phase column (C 18)): 4.63
